PMC6216040, “Repurposing of an old drug: In vitro and in vivo efficacies of buparvaquone against Echinococcus multilocularis” (International Journal for Parasitology: Drugs and Drug …, 2018)
Values after ≈ are worked out from the molar mass of the structure shown. Read-outs that look alike come from different tables or passages of the source. Values belong to the compound of their own block, whether it stands above or below them.

How the values were obtained:
[1] = tested on: E. granulosus protoscoleces; set-up: method as in Bonilla et al., 2008; conditions: after 48 h; ref Bonilla et al., 2008; cited from earlier work
[2] = tested on: E. multilocularis metacestodes; experiment: PGI-assay: drug-induced damage on in vitro cultured metacestodes (Pathogen Box screening cascade and EC50); format: cell-based, Echinococcus multilocularis; conditions: for activity in the screen at 10 μM (confirmed in triplicates, >20% relative PGI release): 5 and 12 days
[3] = tested on: human foreskin fibroblasts (HFF); experiment: Cytotoxicity by Alamar Blue assay in human foreskin fibroblasts; conditions: Homo sapiens, Fibroblast, 120 h
[4] = tested on: E. multilocularis metacestodes; experiment: Vesicle viability assay by Alamar Blue (MIC); format: cell-based, Echinococcus multilocularis; conditions: Echinococcus multilocularis, 288 h; Alamar Blue vesicle viability assay, 12 days of incubation; read-out: E. multilocularis MIC
Experimental: The setup was the same as for PGI-assay EC50 calculations and it was performed in triplicates. […] Data was used to calculate the minimal inhibitory concentrations (MICs) of these compounds on metacestodes.

[5] = tested on: E. multilocularis metacestodes; experiment: PGI-assay under anaerobic/aerobic conditions; conditions: oxygen-free atmosphere, 5 days
[6] = BPQ levels in orally treated mice (literature); format: in vivo; conditions: extrapolation to 100 mg/kg
[7] = set-up: method as in Smith et al., 2018; conditions: mice, oral, single dose of 6 mg/kg; ref Smith et al., 2018; cited from earlier work
[8] = tested on: E. multilocularis metacestodes; experiment: Transmission electron microscopy of BPQ-treated metacestodes; format: cell-based, Echinococcus multilocularis
Experimental: The preparation of the samples for transmission electron microscopy (TEM) was done according to the protocol of [Hemphill and Croft (1997)]. In short, E. multilocularis metacestodes were distributed to 48-well-plates and incubated with DMSO or BPQ (30–0.04 μM) as described above. After an incubation period of 5 days, metacestodes were fixed in 2% glutaraldehyde in 0.1 M sodium cacodylate buffer; pH = 7.3 for 1 h. Next, the samples were stained for 2 h in a 2% osmium tetroxide solution cacodylate buffer, and subsequently pre-stained in a saturated uranyl acetate solution for 30 min. After washing the samples with water, they were dehydrated stepwise by washing in increasing concentrations of ethanol (30%, 50%, 70%, 90%, and three times 100%). The samples were then embedded in Epon 812 resin with three subsequent resin changes during 2 days and incubated at 65 °C overnight for polymerization. Sections for TEM (80 nm) were cut using an ultramicrotome (Reichert and Jung, Vienna, Austria), and were loaded onto formvar-carbon coated nickel grids (Plano GmbH, Marburg, Germany). The specimens were finally stained with uranyl acetate and lead citrate, and were viewed on a CM12 transmission electron microscope (Philips Electron Optics, Eindhoven, Netherlands) that operates at 80 kV.

[9] = tested on: Reuber rat hepatoma (RH) cells; experiment: Cytotoxicity by Alamar Blue assay in rat hepatoma cells; format: cell-based; conditions: 120 h, Alamar Blue, 5 days
[10] = tested on: mitochondrial respiration of E. multilocularis GL cells; experiment: Mitochondrial respiration (OCR) in permeabilized GL cells by Seahorse XFp analyzer; format: cell-based, Echinococcus multilocularis; conditions: 1 μM
[11] = tested on: E. multilocularis metacestodes; experiment: BPQ treatment of E. multilocularis infected mice; format: in vivo, Balb/c mice; conditions: for parasite burden compared to the control: p.o. in corn oil, 5 days per week, 4 weeks, BPQ 100 mg/kg, ABZ 200 mg/kg
Experimental: Balb/c mice, 6 weeks old, were purchased from Charles River Laboratories (Sulzheim, Germany) and used for in vivo experiments when they were 8 weeks old and weighted approximately 20 g. The mice were housed in a type 3 cage containing enrichment in the form of a cardboard house and paper and woodchip bedding with a maximum of seven mice per cage. […] Food and water was provided ad libitum. Experimentally infected mice were treated with BPQ to elucidate the efficacy of the drug in vivo. To infect mice, in vitro grown E. multilocularis metacestodes (isolate […]) were washed in PBS, were mechanically destroyed by pipetting and the resulting suspension was centrifuged for 5 min at 500 g. The parasite tissue was then taken up in an equal volume of PBS. Each mouse was subsequently infected intraperitoneally (i.p.) with 200 μl of this suspension. […] infected mice were randomly distributed into 3 treatment groups (8 animals per group) with 4 animals per cage. […] Treatments of mice started 2 weeks post-infection and lasted for 4 weeks, with consecutive treatment of mice for 5 days per week, followed by an interruption of treatment for 2 days for recovery. All treatments were administered by oral gavage in a volume of 50 μl, with ABZ and BPQ being suspended in corn oil. After four weeks, all mice were anesthetized with isoflurane and subsequently euthanized by CO2. The parasitic tissue from each mouse was completely resected and weighed. The mass of the resected parasitic tissue was used for statistical analyses of the experiment. […] The significance level was set to p < 0.05. Figures were prepared in R and Adobe Illustrator 2015.1.0.

[12] = 1 µM, triplicates, 5 days of incubation
[13] = 1 µM, triplicates, 12 days of incubation

Compound: CC(=O)OCC1OC([S-])C(OC(C)=O)C(OC(C)=O)C1OC(C)=O.CCP(CC)CC.[Au+] (stereo not shown) [MMV688978, Auranofin, reference compound]
concentration killing protoscoleces [1]: 2.5 µM
activity against metacestodes at 1 μM ([2]; triplicates): not at 1 μM
PGI release, % of Tx-100 control, average, 5d [2, 12]: -2.65%
PGI release, % of Tx-100 control, average, 12d [2, 13]: -1.30%
activity in the screen at 10 μM (confirmed in triplicates, >20% relative PGI release) [2]: active
PGI release, % of the Tx-100 control, 5d ([2]; 10 µM, singlets, 5 days of incubation): 84.86%
PGI release, % of the Tx-100 control, 12d ([2]; 10 µM, singlets, 12 days of incubation): 96.09%
PGI release, % of Tx-100 control, average, 5d ([2]; confirmatory screening at 10 µM in triplicates, 5 days of incubation, values as % of Tx-100 control): 47.33%
PGI release, % of Tx-100 control, average, 12d ([2]; confirmatory screening at 10 µM in triplicates, 12 days of incubation, values as % of Tx-100 control): 61.40%

MIC [4]: 0.56 µM (≈ 0.183 µg/mL)
Cmax extrapolated (assuming linear correlation) [6]: 20000 nM
Compound: CC(C)(C)[C@H]1CC[C@H](CC2=C(O)C(=O)c3ccccc3C2=O)CC1 [MMV689480, Buparvaquone]
IC50 ([3]; read-out: HFF confluent IC50): 48.6 µM
IC50 ([3]; read-out: HFF preconfluent IC50): 5.99 µM
damage on metacestodes (PGI-assay), anaerobic, 10 μM or lower ([5]; 10 μM or lower): did not induce damage
damage on metacestodes (PGI-assay), anaerobic, 30 μM ([5]; 30 μM): active
Cmax [7]: 1200 nM
activity against metacestodes at 1 μM ([2]; triplicates): distinct in vitro activities
PGI release, % of Tx-100 control, average, 5d [2, 12]: 1.05%
PGI release, % of Tx-100 control, average, 12d [2, 13]: 52.04%
activity in the screen at 10 μM (confirmed in triplicates, >20% relative PGI release) [2]: active
cytotoxicity at 10 µM ([2]; Echinococcus multilocularis, 120 h, 10 µM, singlets, 5 days of incubation, read-out: PGI release, % of the Tx-100 control, 5d): 27.4%
EC50 ([2]; Echinococcus multilocularis, 120 h, PGI-assay, 5 days in vitro, read-out: E. multilocularis EC50): 2.87 µM
PGI release, % of Tx-100 control at 10 µM ([2]; Echinococcus multilocularis, 120 h, confirmatory screening at 10 µM in triplicates, 5 days of incubation, values as % of Tx-100 control, read-out: PGI release, % of Tx-100 control, average, 5d): 41.2%
cytotoxicity at 10 µM ([2]; Echinococcus multilocularis, 288 h, 10 µM, singlets, 12 days of incubation, read-out: PGI release, % of the Tx-100 control, 12d): 38.6%
PGI release, % of Tx-100 control at 10 µM ([2]; Echinococcus multilocularis, 288 h, confirmatory screening at 10 µM in triplicates, 12 days of incubation, values as % of Tx-100 control, read-out: PGI release, % of Tx-100 control, average, 12d): 63.7%
IC50 ([2]; Echinococcus multilocularis, read-out: IC50 against in vitro cultured E. multilocularis metacestodes): 2.87 µM
toxicity against E. multilocularis metacestodes compared with host cells (HFF, RH) ([2]; comparison of EC50 with IC50 on mammalian cells): specific toxicity
ultrastructural alterations (TEM) at 1 μM ([8]; 1 μM, 5 days): membrane stacks were observed, and the GL started to separate from the LL
ultrastructural alterations (TEM) at 3 μM ([8]; 3 μM, 5 days): metacestode integrity was seriously impaired
lowest concentration with ultrastructural damage (TEM) ([8]; 5 days of BPQ): 0.3 µM
IC50 ([9]; confluent cells, read-out: RH confluent IC50): 17.4 µM
IC50 ([9]; preconfluent cells, read-out: RH preconfluent IC50): 8.47 µM
oxygen consumption rate (OCR) after addition of drug ([10]; permeabilized GL cells fed with succinate): rapidly decreased
inhibition of mitochondrial electron transport chain complex ([10]; OCR restored by ascorbate/TMPD, not by succinate or glycerol 3-phosphate): selectively inhibits complex III
parasite burden compared to the control [11]: failed to reduce the parasite burden
parasite burden compared to the control ([11]; listed as BPQ): no significant difference
adverse effects due to treatment ([11]; whole course of treatment, 4 weeks p.o.): None of the mice showed signs of adverse effects
